Here are results for 22 compounds from ChEMBL document CHEMBL4673338, “ROCK inhibitors 4: Structure-activity relationship studies of 7-azaindole-based rho kinase (ROCK) inhibitors” (Bioorg Med Chem Lett, 2021).

Data set [1] can be described thus: Oral bioavailability in rat at 3 mg/kg. The class given is ADME, organism-based. The conditions noted are these: in vivo.
Data set [2] is described as follows: Cmax in rat at 3 mg/kg, po. The conditions noted are these: in vivo. The class given is ADME, organism-based. Details: route oral, dose 3 mg/kg.
The nature of data set [3]: AUC(0 to infinity) in rat at 3 mg/kg, po. The class given is ADME, organism-based. Details: route oral, time infinity, dose 3 mg/kg. The conditions noted are these: in vivo.
The nature of data set [4]: AUC(0 to infinity) in rat at 1 mg/kg, iv. It is filed as ADME, organism-based. Details: route intravenous, time infinity, dose 1 mg/kg. The conditions noted are these: in vivo.
A short description of data set [5]: Volume of distribution at steady state in rat at 1 mg/kg, iv. The class given is ADME, organism-based. The conditions noted are these: in vivo, read-out: Vdss.
Data set [6] can be described thus: Half life in rat at 1 mg/kg, iv. It is filed as ADME, organism-based. The conditions noted are these: in vivo.
A short description of data set [7]: Clearance in rat at 1 mg/kg, iv. The class given is ADME, organism-based. The conditions noted are these: in vivo.
A short description of data set [8]: Intrinsic clearance in rat Hepatocyte assessed per million cells. The class given is ADME, tissue-based. The conditions noted are these: hepatocytes, read-out: CLH.
A short description of data set [9]: Intrinsic clearance in human Hepatocyte assessed per million cells. It is filed as ADME, tissue-based. The following applies: hepatocytes, read-out: CLH.
Another data set relates to THP-1. Put plainly: Antimigratory activity against human THP-1 cells. The class given is functional, cell-based.
The species named for the next data set is Homo sapiens. Put plainly: Selectivity index, ratio of Ki for PKA (unknown origin) to Ki for ROCK1 (unknown origin).
Data set [10] has as its target Rho-associated protein kinase 1 (Homo sapiens, UniProt Q13464). Put plainly: Inhibition of ROCK1 (unknown origin).
In a further data set the target is Cytochrome P450 3A4 (Homo sapiens, UniProt P08684). Put plainly: Inhibition of CYP3A4 (unknown origin). It is filed as ADME.
Chain of Cytochrome P450 3A4 (P08684 whole entry): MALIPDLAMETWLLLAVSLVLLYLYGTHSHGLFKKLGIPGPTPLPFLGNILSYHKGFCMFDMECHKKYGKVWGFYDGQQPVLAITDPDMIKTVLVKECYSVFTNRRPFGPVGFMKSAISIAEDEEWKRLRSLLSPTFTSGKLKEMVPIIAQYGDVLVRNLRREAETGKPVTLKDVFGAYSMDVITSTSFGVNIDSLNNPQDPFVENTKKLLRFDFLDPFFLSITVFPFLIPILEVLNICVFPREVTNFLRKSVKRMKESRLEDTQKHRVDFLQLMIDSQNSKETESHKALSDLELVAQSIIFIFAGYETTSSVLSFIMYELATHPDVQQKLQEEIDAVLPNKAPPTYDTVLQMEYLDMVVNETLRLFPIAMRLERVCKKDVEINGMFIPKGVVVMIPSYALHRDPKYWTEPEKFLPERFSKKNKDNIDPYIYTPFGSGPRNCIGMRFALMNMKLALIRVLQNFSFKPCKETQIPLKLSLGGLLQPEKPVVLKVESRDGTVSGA
The target of data set [11] is Voltage-gated inwardly rectifying potassium channel KCNH2 (Homo sapiens, UniProt Q12809). Description: Inhibition of human ERG.
Chain of Voltage-gated inwardly rectifying potassium channel KCNH2 (Q12809 whole entry): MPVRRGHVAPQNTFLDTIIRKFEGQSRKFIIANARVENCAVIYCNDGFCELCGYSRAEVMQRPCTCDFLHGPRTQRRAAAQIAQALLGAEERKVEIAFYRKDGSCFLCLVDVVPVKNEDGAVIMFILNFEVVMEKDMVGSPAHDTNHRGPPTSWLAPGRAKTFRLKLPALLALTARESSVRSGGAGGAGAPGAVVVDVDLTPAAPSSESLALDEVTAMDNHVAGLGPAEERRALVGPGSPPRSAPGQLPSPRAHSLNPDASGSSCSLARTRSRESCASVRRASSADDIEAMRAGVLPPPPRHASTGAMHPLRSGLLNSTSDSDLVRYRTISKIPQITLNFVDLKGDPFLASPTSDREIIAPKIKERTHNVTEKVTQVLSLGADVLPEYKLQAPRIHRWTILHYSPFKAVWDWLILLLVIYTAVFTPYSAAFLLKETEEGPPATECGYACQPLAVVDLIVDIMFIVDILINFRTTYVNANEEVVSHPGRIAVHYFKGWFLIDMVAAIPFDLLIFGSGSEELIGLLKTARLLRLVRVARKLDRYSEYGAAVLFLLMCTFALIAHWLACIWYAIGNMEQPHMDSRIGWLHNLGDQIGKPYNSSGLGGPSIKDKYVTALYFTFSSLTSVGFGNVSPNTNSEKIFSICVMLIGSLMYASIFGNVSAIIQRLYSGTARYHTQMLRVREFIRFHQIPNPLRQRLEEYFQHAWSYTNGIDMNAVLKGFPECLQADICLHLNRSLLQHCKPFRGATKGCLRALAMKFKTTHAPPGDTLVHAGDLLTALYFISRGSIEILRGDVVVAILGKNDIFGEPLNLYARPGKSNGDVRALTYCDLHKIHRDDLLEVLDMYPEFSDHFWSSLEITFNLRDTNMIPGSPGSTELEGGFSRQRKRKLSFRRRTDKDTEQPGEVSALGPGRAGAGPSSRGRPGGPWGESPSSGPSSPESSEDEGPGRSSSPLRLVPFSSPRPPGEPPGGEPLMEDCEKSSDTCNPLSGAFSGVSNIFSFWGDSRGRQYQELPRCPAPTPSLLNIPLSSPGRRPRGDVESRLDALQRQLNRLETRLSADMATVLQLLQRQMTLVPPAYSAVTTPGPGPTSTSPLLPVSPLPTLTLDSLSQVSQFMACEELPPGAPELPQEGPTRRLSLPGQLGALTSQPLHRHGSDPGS

Chain of Rho-associated protein kinase 1 (Q13464 whole entry): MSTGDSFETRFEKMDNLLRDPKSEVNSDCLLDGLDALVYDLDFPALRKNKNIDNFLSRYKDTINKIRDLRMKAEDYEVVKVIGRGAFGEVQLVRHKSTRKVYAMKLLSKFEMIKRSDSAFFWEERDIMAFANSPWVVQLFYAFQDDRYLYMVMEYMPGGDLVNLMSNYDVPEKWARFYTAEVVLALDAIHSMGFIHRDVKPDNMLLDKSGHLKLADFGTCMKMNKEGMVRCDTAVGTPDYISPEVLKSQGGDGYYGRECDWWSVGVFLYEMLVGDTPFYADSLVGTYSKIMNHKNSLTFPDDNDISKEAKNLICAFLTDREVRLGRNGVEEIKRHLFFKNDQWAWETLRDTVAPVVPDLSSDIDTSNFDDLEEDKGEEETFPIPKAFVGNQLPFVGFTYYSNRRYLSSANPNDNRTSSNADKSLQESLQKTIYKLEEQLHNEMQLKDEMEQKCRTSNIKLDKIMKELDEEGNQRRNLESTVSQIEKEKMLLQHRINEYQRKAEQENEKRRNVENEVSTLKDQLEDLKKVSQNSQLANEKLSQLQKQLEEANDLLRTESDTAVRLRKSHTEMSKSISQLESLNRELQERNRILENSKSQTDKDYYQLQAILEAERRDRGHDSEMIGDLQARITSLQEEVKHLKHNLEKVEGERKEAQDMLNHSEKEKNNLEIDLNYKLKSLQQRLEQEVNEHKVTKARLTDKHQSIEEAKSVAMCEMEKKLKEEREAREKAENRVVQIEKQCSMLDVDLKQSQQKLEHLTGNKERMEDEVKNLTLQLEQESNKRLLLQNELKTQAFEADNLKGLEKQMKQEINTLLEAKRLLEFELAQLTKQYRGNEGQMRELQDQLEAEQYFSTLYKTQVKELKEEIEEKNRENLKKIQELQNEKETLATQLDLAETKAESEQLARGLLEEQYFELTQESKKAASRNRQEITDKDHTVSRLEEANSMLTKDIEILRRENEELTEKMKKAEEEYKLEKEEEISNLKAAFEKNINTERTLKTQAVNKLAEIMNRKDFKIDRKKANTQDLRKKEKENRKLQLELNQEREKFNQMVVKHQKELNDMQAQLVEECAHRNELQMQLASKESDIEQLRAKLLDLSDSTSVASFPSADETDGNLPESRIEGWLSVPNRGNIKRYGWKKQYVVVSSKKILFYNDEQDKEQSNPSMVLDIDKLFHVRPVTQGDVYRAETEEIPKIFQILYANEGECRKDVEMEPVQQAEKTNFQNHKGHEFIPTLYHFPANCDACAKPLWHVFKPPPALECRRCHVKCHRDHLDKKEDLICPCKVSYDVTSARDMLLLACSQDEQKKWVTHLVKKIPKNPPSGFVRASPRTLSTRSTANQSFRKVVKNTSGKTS

As for `CN1CCN(CCOc2cccc(CC(=O)Nc3nc(-c4c[nH]c5ncccc45)cs3)c2)CC1`, the bioavailability – broadly, the share of a dose that reaches the circulation, judged against a reference dose that is usually intravenous – in [1] was determined as 46%. In data set [2], the Cmax (in general, the highest concentration seen after dosing) turned out to be 60 ng/mL. For the same compound, the total exposure AUC(0-inf) – broadly, the area under the concentration-time curve extrapolated to infinity – in data set [3] turned out to be 600 ng·h/mL; in data set [4], 240 ng·h/mL. Further, the Vd in data set [5] was determined as 14 L/kg. Moreover, the half-life – broadly, the time needed for the level to fall by half in the phase considered – in data set [6] is 3.2 h. Besides, the clearance (as a rule, the rate of elimination divided by the concentration) in data set [7] was 71 mL/min/kg. In addition, the hepatocyte CLint in data set [8] is 32 µL/min/1e6 cells; in data set [9], 3.3 µL/min/1e6 cells. Further, the IC50 (as a rule, the concentration needed to halve the response being measured) in the data set with THP-1 turned out to be 20 nM.

With `CN1CCN(CCCOc2cccc(CC(=O)Nc3nc(-c4c[nH]c5nccc(F)c45)cs3)c2)CC1`, in the data set with THP-1, the concentration for half-maximal inhibition (IC50) stood at 400 nM. Besides, in the data set listed under Homo sapiens, the Ratio Ki came to 180. Further, in [10], the Ki (in general, the equilibrium dissociation constant of an inhibitor or competing ligand from its target) was 10 nM.

In turn, `CS(=O)(=O)Nc1cccc(CC(=O)Nc2nc(-c3c[nH]c4ncccc34)cs2)c1` displayed a F in data set [1] (3 mg/kg) of 38%. In data set [2], this compound returned a Cmax of 900 ng/mL. In addition, the exposure (AUC) – broadly, concentration integrated over time – came out at 9200 ng·h/mL in data set [3] and 2400 ng·h/mL in data set [4]. The Vd in data set [5] was 0.6 L/kg. In data set [6], this compound had a half-life of 2 h. In [7], the clearance turned out to be 7 mL/min/kg. Also, the figures for the hepatocyte CLint in data set [8] and in [9] were 6.7 µL/min/1e6 cells and 4 µL/min/1e6 cells, respectively. For the same compound, in the data set with THP-1, half-maximal inhibition (IC50) required 20 nM.

Regarding `CS(=O)(=O)Nc1cccc(CC(=O)Nc2cc(-c3c[nH]c4ncccc34)cs2)c1`, at Cytochrome P450 3A4, inhibition was half-maximal at 5000 nM (IC50). For the same compound, the Ratio Ki in the data set listed under Homo sapiens was determined as 1. Further, affinity in data set [10] was put at a Ki of 100 nM.

Regarding `Cc1sc(NC(=O)Cc2cccc(NS(C)(=O)=O)c2)nc1-c1c[nH]c2ncccc12`, at Cytochrome P450 3A4, the 50% inhibitory concentration (IC50) is 5000 nM. Moreover, the Ratio Ki in the data set filed under Homo sapiens was determined as 31. The compound also showed an inhibition constant (Ki) in [10] of 52 nM.

Turning to `CS(=O)(=O)Nc1cccc(CC(=O)Nc2nccc(-c3c[nH]c4ncccc34)n2)c1`, the IC50 against Cytochrome P450 3A4 turned out to be 48000 nM; with THP-1, 8000 nM. The Ratio Ki in the data set filed under Homo sapiens was determined as 23. In data set [10], this compound yielded a Ki of 48 nM.

As for `CS(=O)(=O)Nc1cccc(CC(=O)Nc2nc(-c3c[nH]c4ncc(O)cc34)cs2)c1`, the concentration for half-maximal inhibition (IC50) against Cytochrome P450 3A4 is 5000 nM; in the data set with THP-1, 1300 nM. For the same compound, the Ratio Ki in the data set filed under Homo sapiens stood at 107. Further, the Ki in [10] stood at 7 nM.

As for `CN1CCN(CCOc2cccc(CC(=O)Nc3nc(-c4c[nH]c5ncc(F)cc45)cs3)c2)CC1`, the concentration for half-maximal inhibition (IC50) against Cytochrome P450 3A4 turned out to be 27000 nM; with THP-1, 400 nM. Besides, in the data set listed under Homo sapiens, the Ratio Ki came to 320. In addition, the affinity in data set [10], expressed as Ki, was 3 nM.

As to `CS(=O)(=O)Nc1cccc(CC(=O)Nc2nc(-c3c[nH]c4nccc(Cl)c34)cs2)c1`, the IC50 against Cytochrome P450 3A4 came to 8000 nM. The Ratio Ki in the data set listed under Homo sapiens stood at 2. The compound further returned a Ki in data set [10] of 92 nM.

In [4], `O=C(Cc1cccc(OCCCC2CCNCC2)c1)Nc1nc(-c2c[nH]c3ncccc23)cs1` yielded an AUC(0-inf) of 130 ng·h/mL. Besides, in data set [5], the Vd came to 24 L/kg. In addition, the half-life in data set [6] is 5.4 h. In addition, in data set [7], the clearance is 128 mL/min/kg. This compound showed an IC50 in the data set with THP-1 of 20 nM.

For `CS(=O)(=O)Nc1cccc(CC(=O)Nc2nnc(-c3c[nH]c4ncccc34)s2)c1`, the IC50 against Cytochrome P450 3A4 was found to be 100000 nM; with THP-1, 1520 nM. Also, the Ratio Ki in the data set listed under Homo sapiens is 34. The same compound came in with an inhibitory constant (Ki) in data set [10] of 7 nM.

On to `CS(=O)(=O)Nc1cccc(CC(=O)Nc2ccc(-c3c[nH]c4ncccc34)s2)c1`, for which the IC50 at Cytochrome P450 3A4 was 6000 nM; in the data set with THP-1 it was 340 nM. Further, in the data set filed under Homo sapiens, the Ratio Ki turned out to be 39. In [10], this compound returned an inhibitory constant (Ki) of 8 nM.

With `CS(=O)(=O)Nc1cccc(CC(=O)Nc2nc(-c3c[nH]c4ncc(F)cc34)cs2)c1`, the results for the concentration for half-maximal inhibition (IC50) (in data set [11]; against Cytochrome P450 3A4; in the data set with THP-1) were > 30000 nM, 6000 nM and 70 nM, respectively. The hepatocyte CLint came to 11.7 µL/min/1e6 cells in data set [8] and 4.3 µL/min/1e6 cells in data set [9]. The Ratio Ki in the data set listed under Homo sapiens amounted to 53. Moreover, in data set [10], the affinity, expressed as Ki, was 3 nM.

`CN1CCN(CCCOc2cccc(CC(=O)Nc3nc(-c4c[nH]c5ncccc45)cs3)c2)CC1`: the AUC(0-inf) in [4] was 150 ng·h/mL. The Vd in data set [5] is 10 L/kg. This compound also had a half-life in [6] of 0.71 h. This compound also registered a clearance in [7] of 114 mL/min/kg. The values for the hepatocyte CLint in data set [8] and in [9] were 26.8 µL/min/1e6 cells and 7.5 µL/min/1e6 cells, respectively.

On to `CS(=O)(=O)Nc1cccc(CC(=O)Nc2nc(-c3c[nH]c4ncc(Br)cc34)cs2)c1`, for which the half-inhibitory concentration (IC50) on Cytochrome P450 3A4 was determined as 35000 nM; in the data set on THP-1, 10000 nM. Further, the Ratio Ki in the data set filed under Homo sapiens came to 32. In [10], the Ki came out at 22 nM.

In data set [4], `O=C(Cc1cccc(OCCCC2CCNCC2)c1)Nc1nc(-c2c[nH]c3ncc(F)cc23)cs1` registered an AUC(0-inf) of 250 ng·h/mL. In addition, the Vd in [5] was 8.7 L/kg. In [6], this compound gave a half-life of 3.8 h. For the same compound, in [7], the clearance amounted to 66 mL/min/kg. In addition, the IC50 in [11] is > 30000 nM; in the data set on THP-1, 140 nM. The hepatocyte CLint in data set [8] is 20.5 µL/min/1e6 cells; in data set [9], 6.3 µL/min/1e6 cells. Besides, the Ratio Ki in the data set filed under Homo sapiens was > 480. In [10], this compound returned an inhibitory constant (Ki) of 1 nM.

On to `CS(=O)(=O)Nc1cccc(CC(=O)Nc2nc(-c3c[nH]c4nccc(F)c34)cs2)c1`, for which the values for the IC50 against Cytochrome P450 3A4 and in the data set with THP-1 were 36000 nM and 80 nM, respectively. Also, the Ratio Ki in the data set listed under Homo sapiens amounted to 31. In [10], this compound came in with an inhibition constant (Ki) of 4 nM.

For the compound `CS(=O)(=O)Nc1cccc(CC(=O)Nc2csc(-c3c[nH]c4ncccc34)n2)c1`, the half-maximal inhibitory concentration (IC50) against Cytochrome P450 3A4 amounted to 12000 nM; in the data set on THP-1, 370 nM. The Ratio Ki in the data set listed under Homo sapiens stood at 31. Moreover, in data set [10], the affinity, expressed as Ki, was 10 nM.

In [4], `O=C(Cc1cccc(OCCCC2CCNCC2)c1)Nc1nc(-c2c[nH]c3nccc(F)c23)cs1` came in with an area under the curve AUC(0-inf) of 250 ng·h/mL. Further, in [5], the Vd stood at 19 L/kg. The same compound showed a half-life in [6] of 5.5 h. The clearance in data set [7] was determined as 68 mL/min/kg. Also, the figures for the half-maximal inhibitory concentration (IC50) (in [11]; against Cytochrome P450 3A4; in the data set on THP-1) were > 30000 nM, 100000 nM and 50 nM, respectively. For the same compound, in [9], the hepatocyte CLint came out at 5.7 µL/min/1e6 cells. In addition, the Ratio Ki in the data set listed under Homo sapiens was found to be 143. For the same compound, in data set [10], affinity was put at a Ki of 3 nM.

For the compound `CS(=O)(=O)Nc1cccc(CC(=O)Nc2nc(-c3c[nH]c4ncc(Cl)cc34)cs2)c1`, the IC50 against Cytochrome P450 3A4 came to 8000 nM; with THP-1, 310 nM. The Ratio Ki in the data set listed under Homo sapiens was found to be 46. Moreover, in data set [10], the affinity corresponds to a Ki of 11 nM.

Compound `CN1CCN(CCCOc2cccc(CC(=O)Nc3nc(-c4c[nH]c5ncc(F)cc45)cs3)c2)CC1` displayed a half-inhibitory concentration (IC50) in the data set with THP-1 of 260 nM. Moreover, in the data set filed under Homo sapiens, the Ratio Ki amounted to 240. The Ki in [10] was found to be 5 nM.

Consider `CS(=O)(=O)Nc1cccc(CC(=O)Nc2cc(-c3c[nH]c4ncccc34)ncn2)c1`, for which the half-maximal inhibitory concentration (IC50) against Cytochrome P450 3A4 was found to be 100000 nM; in the data set with THP-1, 820 nM. Further, the Ratio Ki in the data set listed under Homo sapiens was 20. In data set [10], this compound displayed an inhibitory constant (Ki) of 7 nM.
